Data from article PMC4180634, “Pharmacokinetic Study and Bioavailability of a Novel Synthetic Trioxane Antimalarial Compound 97/63 in Rats” (Malaria Research and Treatment, 2014).
Where two headings read alike, the source gives them in different places.

Assays:
[1] = tested on: malarial parasites; set-up: method as in earlier work; settings: cited from earlier work
[2] = Stability studies of 97/63 in rat serum samples (long-term, freeze-thaw, dry residue, autoinjector); assay type: physicochemical
Method: Long-term stability of 97/63 was carried by preparing QC samples at low, medium, and high concentrations in three replicates for four different days and stored at -60°C. These sets of samples were analyzed after 0, 7, 15, and 30 days of storage and their concentrations were read from the respective calibration standard curve. The results are expressed as % deviation from 0 days concentration. F-T stability of 97/63 in serum samples was determined by preparing QC of strengths low (10 ng mL^-1), medium (100 ng mL^-1), and high (500 ng mL^-1) in three replicates for four different days. One set of three concentrations was analyzed on day of preparation (no F-T cycle) before storing the remaining sets at -60°C. Other sets were analyzed after 1, 2, and […] cycles. Thawing was achieved by keeping the sealed tubes at room temperatures for 30 min. The results are expressed as % deviation with initial concentration. The effect of storage on dry residue stability was determined at QC 10 ng mL^-1 (low), 100 ng mL^-1 (medium), and 500 ng mL^-1 (high) concentration levels. All the samples (three replicates of three concentrations × 4 sets) were prepared and dry residue was stored in glass tubes sealed with aluminum foil and then with parafilm. One set in triplicate was reconstituted on day 1 with mobile phase and analyzed on the same day (without storage). The remaining sets were similarly analyzed on days 2, 4, and 8 and results are expressed as % deviation. After sample preparation, stability of 97/63 in the autoinjector was evaluated for 4 h; the maximum duration for which the sample may have to wait in the autoinjector tray for pending analysis and results are expressed in % deviation with initial injection (t = 0 h).

[3] = tested on: malarial parasites; set-up: method as in earlier work; settings: cited from earlier work; remark: listed apart in the source
[4] = Single dose pharmacokinetic study after oral and intravenous administration in male rats (serum, HPLC-UV); assay type: in vivo, Sprague-Dawley rats; settings: for half-life: two-compartment model
From the text: Male Sprague-Dawley (SD) rats weighing 250 ± 25 g for this study were obtained from institutional Laboratory Animal Division, CDRI, Lucknow, prior to study. Rats were given standard pellets for feeding and filtered water was given ad libitum and they were housed in well ventilated cages which were kept at room temperature on a regular 12-h light-dark cycle. Animals were kept in accordance with the guidelines of local ethical committee (Ethical approval 58/08/PKM/IAEC) for animal experimentation and principles of the guide for care and use of laboratory animals were followed (Department of Health Education and Welfare, number [NIH] 85-32). Oral and IV study was carried out in two sets (I and II). Each set contained two groups, that is, groups A and B. PK was carried out by dosing 97/63 in two groups (A and B) containing four rats in each group for sparse sampling. Young and healthy male SD rats weighing 250 ± 25 g (obtained from Laboratory Animal Division of CDRI) were housed in well ventilated cages and kept at room temperature 25 ± 2°C on a regular 12-h light-dark cycle. Animals were cared for in accordance with the principles of guide for care and use of laboratory animals. Animals in oral study group were fasted overnight to minimize the effects of food on pharmacokinetic profile of 97/63. Intravenous dose was administered as a single bolus injection through tail vein using a 26 G needle after dilating the tail vein [16]. The oral dose was administered using a 2 mL syringe and feeding needle. After intravenous and oral dose administration, rats were also monitored for physiological behavior. […] The intravenous formulation for single dose, 18 mg kg^−1, was a solution of 97/63 in DMSO. The oral formulation for single dose, 72 mg kg^−1, was also a solution of 97/63 in DMSO. The formulations were subjected to quality control (QC) checks to ensure their strength and content uniformity prior to use. The strength of formulation for intravenous and oral administration was 18 mg mL^−1 and 36 mg mL^−1. Compound 97/63 formulated in DMSO was administered to overnight fasted rats by oral and intravenous route. The dose volume factor for intravenous administration was 1 mL kg^−1, with 250 g rat receiving 0.25 mL, and for oral administration it was 2 mL kg^−1, with 250 g rat receiving 0.5 mL of formulation. Sparse sampling approach was used to collect blood samples by cardiac puncture. The total volume of blood withdrawn within 24 hours was less than 5% of blood volume. Blood samples were collected in glass tubes at 0.083, 0.25, 0.5, 0.75, 1, 1.5, 2, 3, 4, 6, 8, 10, 18, 24, 48, and 60 h after oral dose. Blood samples were stored at room temperature for 30 min to separate the serum. Serum was separated by centrifugation at 1500 ×g for 10 min and stored at –60°C until analysis. Analysis was performed within 30 days of sample collection. Curve fitting and estimation of pharmacokinetic parameters of 97/63 were carried out using WinNonlin (5.1) software program (Pharsight Corp, USA). The data were tested using Gauss-Newton algorithm, with noncompartment, one compartment, and two-compartment models after applying different weighting factor to the observed values of the concentrations. Decision on the suitability of a particular compartment model in explaining the data was undertaken based on the Akaike or Schwarz information criterion, correlation coefficient, and scatter of residuals.

[5] = log P; assay type: physicochemical
[6] = Sprague-Dawley, rat, oral 72 mg kg^−1, male rats, serum

In the case of `C=C(c1ccc(OC(C)(C)CO)cc1)C1COC2(OO1)C1CC3CC(C1)CC2C3` (stereo not shown) [97/63], the “potency against malarial parasites in vivo” value [1] is listed as “good potency”, the “reinjection (autoinjector) stability, deviation” value ([2]; 4 h gap, samples stored at 4°C) is listed as “less than 10%” and the “dry residue stability after extraction” value ([2]; 8 days stored at −60°C) is listed as “stable”. For the same molecule, the “long-term stability in serum” value ([2]; 30 days, normal serum stored at −60°C) was “stable”, the “freeze-thaw stability in serum” value ([2]; three F-T cycles) was “stable” and the “potency against malarial parasites in vitro” value [3] was “good potency”. For the same molecule, the clearance ([4]; Sprague-Dawley, rat, serum, intravenous 18 mg kg^−1, male rats) was 148 mL/min/kg, the Vd ([4]; Sprague-Dawley, rat, serum, intravenous 18 mg kg^−1, male rats, read-out: Vd) was 135 ± 11.2 L/kg and the AUC(0-inf) ([4]; Sprague-Dawley, rat, intravenous 18 mg kg^−1, male rats, serum) was 2030 ± 574 ng·h/mL. The C0 ([4]; Sprague-Dawley, rat, intravenous 18 mg kg^−1, male rats, serum, mean ± SD, N = 4) was 1800 ± 330 ng/mL, the AUC(0-inf) [4, 6] was 1270 ± 27 ng·h/mL and the Tmax [4, 6] was 1 ± 0.7 h. The Cmax ([4]; Sprague-Dawley, rat, oral 72 mg kg^−1, male rats, serum, mean ± SD, N = 4) was 229 ± 64.3 ng/mL, the “metabolite peaks in rat serum” value ([4]; after oral and intravenous dose, HPLC-UV) was “No metabolite peaks were observed” and the half-life ([4]; male, Sprague-Dawley, rat, serum, iv, 18 mg/kg, intravenous 18 mg kg^−1, male rats, read-out: T 1/2 (α) distribution half-life (converted)) was 0.45 ± 0.08 h. For the same molecule, the half-life ([4]; male, Sprague-Dawley, rat, serum, iv, 18 mg/kg, intravenous 18 mg kg^−1, male rats, read-out: T 1/2 (β) elimination half-life (converted)) was 10.6 ± 0.16 h, the bioavailability ([4]; male, Sprague-Dawley, rat, serum, oral, 72 mg kg^−1, oral 72 mg kg^−1 vs intravenous 18 mg kg^−1, male rats, read-out: % bioavailability (absolute)) was roughly 16% and the half-life ([4]; male, Sprague-Dawley, rat, serum, po, 72 mg/kg, oral 72 mg kg^−1, male rats, read-out: T 1/2 (α) distribution half-life (converted)) was 0.84 ± 0.14 h. For the same molecule, the half-life ([4]; male, Sprague-Dawley, rat, serum, po, 72 mg/kg, oral 72 mg kg^−1, male rats, read-out: T 1/2 (β) elimination half-life (converted)) was 10.6 ± 0.2 h, the Cl ([4]; oral 72 mg kg^−1, male rats) was 187 ± 1.2 mL/min/kg and the Vd ([4]; oral 72 mg kg^−1, male rats) was 172.31 ± 28.59 L/kg. For the same molecule, the “absorption rate constant (K a)” value ([4]; oral 72 mg kg^−1, male rats) was 0.82 h⁻¹, the “clinical symptoms after dosing” value ([4]; oral 72 mg kg^−1 and intravenous 18 mg kg^−1, male rats, sampling period) was “No abnormal clinical symptoms” and the “% bioavailability (absolute)” value ([4]; oral 72 mg kg^−1 vs intravenous 18 mg kg^−1, male rats) was 15.66%. The logP [5] was less than 3.5.
